The values that follow come from ChEMBL document CHEMBL1201862, “PubChem BioAssay data set” (2004).

Test systems include A498; CAKI-1; COLO 205; DU-145; HCT-15; HOP-62; Hs-578T; M14; MDA-MB-231; MDA-MB-435; Malme-3M; OVCAR-4; OVCAR-8; SNB-75; TK-10; UACC-257; UACC-62; HCC 2998; SK-MEL-2; BT-549.
Holding throughout (experiment): NCI tumour cell line growth inhibition, 48 h

SMILES strings stand for the structures.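 Growth conditions: 96-well plates. Treatment: test compound, 48 hours, 5 concentrations. Analysis: linear interpolation between bracketing concentrations; unreached endpoints set to highest concentration. GI50 marks 50% less growth.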 Active and inactive are the calls of the source. Rule as the data show it: active = GI50 up to about 1.1 µM and inactive = higher.

Regarding `N[C@H](Cc1ccc2oc3cc(=O)c4ccccc4c-3nc2c1)C(=O)O`, the GI50 in the experiment on A498 is 49.7 µM (inactive); in the experiment on CAKI-1, > 100 µM (inactive); in the experiment on COLO 205 it was 30.3 µM (inactive); in the experiment on DU-145, 21.7 µM (inactive); with HCT-15, 39.4 µM; in the experiment with HOP-62, 46.5 µM (inactive). Moreover, the GI50 in the experiment with Hs-578T is 39.6 µM (inactive); in the experiment with M14 it was 19.3 µM (inactive); in the experiment with MDA-MB-231 it was 62.7 µM (inactive); with MDA-MB-435 it was 15.5 µM (inactive); in the experiment on Malme-3M, 21 µM (inactive); with OVCAR-4, > 100 µM (inactive). The GI50 in the experiment on OVCAR-8 is 30.5 µM (inactive); in the experiment with SNB-75 it was 67 µM (inactive); in the experiment with TK-10 it was 97.5 µM (inactive); with UACC-257, 29.8 µM (inactive); in the experiment on UACC-62, 26.7 µM (inactive).

Regarding `COc1ccc(Nc2nc3c([nH]2)c(=O)n(C)c(=O)n3C)cc1`, the GI50 in the experiment on CAKI-1 was > 10 µM (inactive); with COLO 205, > 10 µM (inactive); in the experiment on DU-145, > 10 µM (inactive); in the experiment on HCC 2998 it was > 10 µM (inactive); with HCT-15 it was more than 10 µM; in the experiment on HOP-62, > 10 µM (inactive). The GI50 in the experiment with M14, with MDA-MB-231, in the experiment on MDA-MB-435, in the experiment on Malme-3M, in the experiment with OVCAR-4 and in the experiment on OVCAR-8 was > 10 µM (inactive) throughout. The GI50 in the experiment on SNB-75, in the experiment on TK-10, in the experiment on UACC-257 and in the experiment on UACC-62 was > 10 µM (inactive) each time.

For `Cc1cn(C2C=CC(COP(=O)(OCc3ccc([N+](=O)[O-])o3)N(C)CCCCCl)O2)c(=O)[nH]c1=O` (stereo not drawn), the GI50 with CAKI-1 is 16 µM (inactive); with COLO 205 it was 2.4 µM (inactive); with DU-145 it was 13.3 µM (inactive); in the experiment on HCT-15 it was 16.6 µM; in the experiment on HOP-62 it was 16 µM (inactive); in the experiment on Hs-578T it was 2.17 µM (inactive). The GI50 in the experiment with M14 is 4.69 µM (inactive); in the experiment on MDA-MB-231 it was 12.1 µM (inactive); in the experiment with MDA-MB-435, 1.8 µM (inactive); in the experiment on Malme-3M, 1.79 µM (inactive); with OVCAR-4, 4.31 µM (inactive); in the experiment on OVCAR-8 it was 13.9 µM (inactive). For the same molecule, the GI50 is 3.48 µM (inactive) in the experiment with SK-MEL-2; 1.58 µM (inactive) in the experiment on SNB-75; 16.6 µM (inactive) in the experiment on TK-10; 5.55 µM (inactive) in the experiment on UACC-257; 4.56 µM (inactive) in the experiment on UACC-62.

For the molecule `O=C(/C=C/c1ccc([N+](=O)[O-])cc1)c1ccc(NCc2nc3ccccc3[nH]2)cc1`, the GI50 in the experiment on A498 was 7.24 µM (inactive); with CAKI-1, 6.52 µM (inactive); in the experiment with COLO 205, 2.07 µM (inactive); in the experiment with HCC 2998, 2.61 µM (inactive); with HCT-15 it was 2.93 µM; in the experiment on HOP-62, 10 µM (inactive). The GI50 is 11.5 µM (inactive) in the experiment with M14; 14.2 µM (inactive) with Malme-3M; 13.3 µM (inactive) in the experiment on OVCAR-4; 2.68 µM (inactive) in the experiment with OVCAR-8; 14.9 µM (inactive) with SK-MEL-2; 3.93 µM (inactive) with SNB-75. The GI50 with TK-10 is 5.96 µM (inactive); in the experiment with UACC-257 it was 3.41 µM (inactive); with UACC-62, 9.84 µM (inactive).

Take `CCC(NC(C)c1ccccc1)C(O)c1ccc(OCc2ccccc2)c(OCc2ccccc2)c1` (stereo not drawn): the GI50 is 24 µM (inactive) in the experiment with A498; 11.9 µM (inactive) in the experiment on CAKI-1; 2.23 µM (inactive) in the experiment with COLO 205; 18.2 µM (inactive) in the experiment with DU-145; 2.37 µM (inactive) in the experiment with HCC 2998; 14.5 µM in the experiment on HCT-15. Further, the GI50 with HOP-62 was 17.9 µM (inactive); in the experiment on Hs-578T, 19 µM (inactive); in the experiment with M14, 4.86 µM (inactive); with MDA-MB-231 it was 8.47 µM (inactive); with MDA-MB-435 it was 13.8 µM (inactive); with Malme-3M it was 14.6 µM (inactive). Moreover, the GI50 is 16.4 µM (inactive) in the experiment with OVCAR-4; 14.1 µM (inactive) in the experiment on OVCAR-8; 14.9 µM (inactive) with SK-MEL-2; 10.6 µM (inactive) in the experiment with SNB-75; 17.8 µM (inactive) in the experiment on TK-10; 4.04 µM (inactive) with UACC-257. Besides, in the experiment on UACC-62, the GI50 is 17.5 µM (inactive).

For `COC(=O)CSc1[nH]c2nc(C)nc(Nc3ccccc3)c2c1C#N`, the GI50 with CAKI-1 was > 10 µM (inactive); in the experiment with COLO 205 it was > 10 µM (inactive); in the experiment with DU-145 it was > 10 µM (inactive); in the experiment on HCC 2998, > 10 µM (inactive); in the experiment with HCT-15 it was more than 10 µM; in the experiment on HOP-62, > 10 µM (inactive). The GI50 with M14, in the experiment with MDA-MB-231, with MDA-MB-435, in the experiment with Malme-3M, in the experiment with OVCAR-4 and with OVCAR-8 was > 10 µM (inactive) each time. Further, the GI50 in the experiment on SNB-75, with TK-10, in the experiment on UACC-257 and in the experiment on UACC-62 was > 10 µM (inactive) throughout.

As to `CN(C)C(=S)/N=c1\ss/c(=N\S(=O)(=O)c2ccccc2)n1N(C)C`, the GI50 with A498 is > 100 µM (inactive); in the experiment on CAKI-1, > 100 µM (inactive); with COLO 205, > 100 µM (inactive); in the experiment on HCC 2998, > 100 µM (inactive); in the experiment with HCT-15 it was more than 100 µM; with HOP-62 it was > 100 µM (inactive). The GI50 in the experiment with M14, in the experiment with Malme-3M, in the experiment on OVCAR-4, with OVCAR-8, with SK-MEL-2 and with SNB-75 was > 100 µM (inactive) throughout. For the same molecule, the GI50 in the experiment on TK-10, in the experiment with UACC-257 and in the experiment on UACC-62 was > 100 µM (inactive) in each case.

For the molecule `Oc1ccc2ccccc2c1/N=N/c1ccsc1`, the GI50 with A498 was > 100 µM (inactive); in the experiment with CAKI-1 it was > 100 µM (inactive); with COLO 205 it was > 100 µM (inactive); in the experiment with HCC 2998, > 100 µM (inactive); in the experiment on HCT-15, 76.7 µM; in the experiment with HOP-62, > 100 µM (inactive). For the same molecule, the GI50 in the experiment on M14, in the experiment with Malme-3M, in the experiment on OVCAR-4, with OVCAR-8, with SK-MEL-2 and with SNB-75 was > 100 µM (inactive) in each case. For the same molecule, the GI50 with TK-10, with UACC-257 and in the experiment on UACC-62 was > 100 µM (inactive) each time.

Consider `CCOC(=O)C1(Cc2ccccc2)Cc2ccccc2C1=O` (stereo not drawn), for which the GI50 was 19.6 µM (inactive) in the experiment on COLO 205; 45.2 µM (inactive) with DU-145; 34.4 µM (inactive) in the experiment with HCC 2998; 30.9 µM in the experiment with HCT-15; 35.2 µM (inactive) in the experiment with HOP-62; 35.1 µM (inactive) in the experiment with Hs-578T. The GI50 in the experiment with M14 is 16.6 µM (inactive); in the experiment on MDA-MB-231, 25.9 µM (inactive); in the experiment on MDA-MB-435, 20 µM (inactive); in the experiment on Malme-3M, 18.7 µM (inactive); with OVCAR-4 it was 18.7 µM (inactive); with OVCAR-8 it was 28.8 µM (inactive). In addition, the GI50 with SK-MEL-2 is 14.8 µM (inactive); in the experiment with SNB-75 it was 25.4 µM (inactive); in the experiment with TK-10, 36.8 µM (inactive); in the experiment on UACC-257 it was > 10 µM (inactive); with UACC-62, 20.8 µM (inactive).

Regarding `O=c1c2cc([N+](=O)[O-])ccc2n2n1CCCCC2`, the GI50 was > 100 µM (inactive) in the experiment on A498; > 100 µM (inactive) in the experiment on CAKI-1; > 100 µM (inactive) in the experiment with COLO 205; > 100 µM (inactive) in the experiment with DU-145; > 100 µM (inactive) with HCC 2998; more than 100 µM in the experiment on HCT-15. The GI50 with HOP-62, with Hs-578T, in the experiment on M14, with MDA-MB-231, in the experiment with MDA-MB-435 and with Malme-3M was > 100 µM (inactive) throughout. The GI50 with OVCAR-4 is > 100 µM (inactive); with OVCAR-8, > 100 µM (inactive); in the experiment with SNB-75, > 100 µM (inactive); in the experiment with TK-10, 61.8 µM (inactive); with UACC-257, > 100 µM (inactive); in the experiment on UACC-62, > 100 µM (inactive).

For `NS(=O)(=O)c1ccc(CNc2nc(-c3cccs3)nc3ccc(I)cc23)cc1`, the GI50 in the experiment with BT-549 was 12.7 µM (inactive); in the experiment on CAKI-1 it was 6.15 µM (inactive); with COLO 205 it was 16.1 µM (inactive); with DU-145, 14.9 µM (inactive); in the experiment on HCC 2998, 13.8 µM (inactive); in the experiment with HCT-15, 13.1 µM. Besides, the GI50 in the experiment on HOP-62 is 21.4 µM (inactive); in the experiment with M14, 15.1 µM (inactive); in the experiment on MDA-MB-435, 14.6 µM (inactive); in the experiment with Malme-3M it was 14.7 µM (inactive); in the experiment on OVCAR-4 it was 10.7 µM (inactive); in the experiment with OVCAR-8 it was 18.4 µM (inactive). For the same molecule, the GI50 is 21.6 µM (inactive) with SNB-75, 9.16 µM (inactive) with TK-10 and 16.5 µM (inactive) with UACC-62.

As to `COc1cc(-c2oc3c(OC)c(O)c(OC)c(O)c3c(=O)c2OC)cc(O)c1OC`, the GI50 was 22.5 µM (inactive) in the experiment on A498; 24.5 µM (inactive) in the experiment with CAKI-1; 67.8 µM (inactive) with COLO 205; 37.1 µM (inactive) with DU-145; 31.3 µM (inactive) with HCC 2998; 35.3 µM in the experiment on HCT-15. Moreover, the GI50 in the experiment on HOP-62 is 40.5 µM (inactive); in the experiment with M14, 38.3 µM (inactive); with MDA-MB-231 it was 46.2 µM (inactive); with MDA-MB-435, 19.6 µM (inactive); in the experiment on Malme-3M it was 23.9 µM (inactive); with OVCAR-4, > 100 µM (inactive). Further, the GI50 in the experiment with OVCAR-8 is 37.9 µM (inactive); in the experiment with SK-MEL-2, 55.1 µM (inactive); in the experiment with SNB-75, 11 µM (inactive); in the experiment with TK-10, 39.2 µM (inactive); in the experiment on UACC-257, 51.2 µM (inactive); in the experiment on UACC-62, 22.4 µM (inactive).
